The target in the assay is T1, ERR1 (also known as ERR-α or ERR-1) (Homo sapiens, UniProt P11474).
T1 sequence (P11474 193-421 limits assumed): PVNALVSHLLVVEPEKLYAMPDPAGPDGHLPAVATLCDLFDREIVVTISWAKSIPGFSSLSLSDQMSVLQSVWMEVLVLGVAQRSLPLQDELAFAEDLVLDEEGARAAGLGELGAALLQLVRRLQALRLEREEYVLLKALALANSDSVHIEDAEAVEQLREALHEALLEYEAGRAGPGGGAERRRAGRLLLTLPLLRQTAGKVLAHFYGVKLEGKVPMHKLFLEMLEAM
Description: TR-FRET assay: disruption of co-activator peptide (GST-hSRC2) binding to 6His-tagged ERR1 LBD. The format is biochemical. As to conditions: 6 nM ERR1LBD, 6 nM GST-SRC-2 peptide, 25° C., 4-18 hours; average of 3 independent experiments. As to the method:
Time-Resolved Fluorescence Resonance Energy Transfer (TR-FRET) experiments were performed to examine the functional response of ERR1 (also known as ERR-α or ERR-1) ligands. The TR-FRET assay described herein relied on the conformation of ERR1 for binding to a co-activator peptide: when a test compound binds to ERR1 and alters its conformation, it can disrupt the binding of the co-activator peptide. The components of this homogeneous secondary assay included: the ^6His-tagged-ERR1LBD, a GST-labeled-hSRC2 co-activator polypeptide and a fluorescent donor/acceptor pair from CIS bio international htrf/bioassays (Bedford, Mass.) using both an α-GST Europium Cryptate (Eu) label and an α^6His-XL665 (allophycocyanin) fluorophore.
For TR-FRET measurements, the reaction was buffered in 25 mM Tris pH 8, 2.5 mM Hepes, 20 mM KCl, 1 mM DTT, and 0.05 mg/mL BSA (-lipids). The final concentrations of reagents were 6 nM of ERR1LBD, 6 nM GST-SRC-2 peptide, 30 nM Eu cryptate, and 7.5 nM XL665. Reactions were allowed to reach equilibrium at 25° C. for 4-18 hours before collecting data on the Analyst from LJL Biosystems (Molecular Devices Sunnyvale, Calif.). As a time-resolved method, the samples were excited at […] and emission was collected for 1 ms at both 615 and 665 nm with delays of 400 and 75 μs, respectively. Dose response curves were fitted using a hyperbolic equation and the data reported is the average of 3 independent experiments.
Compounds listed in Tables II below were tested in the above assay, and they are all active modulators of ERR1.
In the case of `Cc1nnc(CNC2=NC(=O)/C(=C/c3ccc4c(cnn4Cc4ccc(Cl)cc4C(F)(F)F)c3)S2)[nH]1` [Compound 35, 5-[1-(4-Chloro-2-trifluoromethyl-benzyl)-1H-indazol-5-ylmethylene]-2-[(5-methyl-4H-[1,2,4]triazol-3-ylmethyl)-amino]-thiazol-4-one], a half-maximal response (EC50) required 11.2 nM.
Next, `O=C1N=C(NCCC2CCOCC2)S/C1=C\c1ccc2c(cnn2Cc2ccc(C(F)(F)F)cc2C(F)(F)F)c1` [Compound 33, 5-[1-(2,4-Bis-trifluoromethyl-benzyl)-1H-indazol-5-ylmethylene]-2-[2-(tetrahydro-pyran-4-yl)-ethylamino]-thiazol-4-one]: 260 nM.
Compound `O=C1N=C(NC2(C(=O)O)CC2)S/C1=C\c1ccc2c(cnn2Cc2ccc(C(F)(F)F)cc2C(F)(F)F)c1` [Compound 14, 1-{5-[1-(2,4-Bis-trifluoromethyl-benzyl)-1H-indazol-5-ylmethylene]-4-oxo-4,5-dihydro-thiazol-2-ylamino}-cyclopropanecarboxylic acid] had an EC50 of 6.5 nM.
The compound `NS(=O)(=O)CCNC1=NC(=O)/C(=C/c2ccc3c(cnn3Cc3ccc(C(F)(F)F)cc3C(F)(F)F)c2)S1` [Compound 31, 2-{5-[1-(2,4-Bis-trifluoromethyl-benzyl)-1H-indazol-5-ylmethylene]-4-oxo-4,5-dihydro-thiazol-2-ylamino}-ethanesulfonic acid amide] registered an EC50 of 37 nM. This EC50 lies about 5.7-fold higher than the previous one.
Next, `O=C1N=C(NC2(C(=O)O)CC2)S/C1=C\c1ccc2c(cnn2Cc2ccc(Cl)cc2C(F)(F)F)c1` [Compound 45, 1-{5-[1-(4-Chloro-2-trifluoromethyl-benzyl)-1H-indazol-5-ylmethylene]-4-oxo-4,5-dihydro-thiazol-2-ylamino}-cyclopropanecarboxylic acid]: 9.7 nM; `O=C1CN(CCNC2=NC(=O)/C(=C/c3ccc4c(cnn4Cc4ccc(C(F)(F)F)cc4C(F)(F)F)c3)S2)CCN1` [Compound 16, 4-(2-{5-[1-(2,4-Bis-trifluoromethyl-benzyl)-1H-indazol-5-ylmethylene]-4-oxo-4,5-dihydro-thiazol-2-ylamino}-ethyl)-piperazin-2-one]: 2.5 nM.
The same measure for `Cc1nnc(CNC2=NC(=O)/C(=C/c3ccc4c(cnn4Cc4ccc(C(F)(F)F)cc4C(F)(F)F)c3)S2)[nH]1` [Compound 36, 5-[1-(2,4-Bis-trifluoromethyl-benzyl)-1H-indazol-5-ylmethylene]-2-[(5-methyl-4H-[1,2,4]triazol-3-ylmethyl)-amino]-thiazol-4-one]: 4.8 nM; for `O=C1N=C(NCCN2CCOCC2)S/C1=C\c1ccc2c(cnn2Cc2ccc(C(F)(F)F)cc2C(F)(F)F)c1` [Compound 12, 5-[1-(2,4-Bis-trifluoromethyl-benzyl)-1H-indazol-5-ylmethylene]-2-(2-morpholin-4-yl-ethylamino)-thiazol-4-one]: 15 nM; for `COc1ccc(Cn2ncc3cc(/C=C4\SC(NCCN5CCCC5)=NC4=O)ccc32)c(C(F)(F)F)c1` [Compound 6, 5-[1-(4-Methoxy-2-trifluoromethyl-benzyl)-1H-indazol-5-ylmethylene]-2-(2-pyrrolidin-1-yl-ethylamino)-thiazol-4-one]: 4.5 nM.
The same measure for `CNC(=O)CNC1=NC(=O)/C(=C/c2ccc3c(cnn3Cc3ccc(Cl)cc3C(F)(F)F)c2)S1` [Compound 41, 2-{5-[1-(4-Chloro-2-trifluoromethyl-benzyl)-1H-indazol-5-ylmethylene]-4-oxo-4,5-dihydro-thiazol-2-ylamino}-N-methyl-acetamide]: 7.7 nM.
With `O=C1N=C(NCc2cncnc2)S/C1=C\c1ccc2c(cnn2Cc2ccc(Cl)cc2C(F)(F)F)c1` [Compound 32, 5-[1-(4-Chloro-2-trifluoromethyl-benzyl)-1H-indazol-5-ylmethylene]-2-[(pyrimidin-5-ylmethyl)-amino]-thiazol-4-one], it took 8.6 nM to reach a half-maximal effect (EC50).
Next, `O=C(O)CNC1=NC(=O)/C(=C/c2ccc3c(cnn3Cc3ccc(Cl)cc3C(F)(F)F)c2)S1` [Compound 4, {5-[1-(4-Chloro-2-trifluoromethyl-benzyl)-1H-indazol-5-ylmethylene]-4-oxo-4,5-dihydro-thiazol-2-ylamino}-acetic acid]: 23.1 nM; `O=C1N=C(N[C@H]2CCNC2)S/C1=C\c1ccc2c(cnn2Cc2ccc(Cl)cc2C(F)(F)F)c1` [Compound 21, 5-[1-(4-Chloro-2-trifluoromethyl-benzyl)-1H-indazol-5-ylmethylene]-2-(pyrrolidin-3S-ylamino)-thiazol-4-one]: 4.6 nM; `O=C1N=C(NCc2cncnc2)S/C1=C\c1ccc2c(cnn2Cc2ccc(C(F)(F)F)cc2C(F)(F)F)c1` [Compound 30, 5-[1-(2,4-Bis-trifluoromethyl-benzyl)-1H-indazol-5-ylmethylene]-2-[(pyrimidin-5-ylmethyl)-amino]-thiazol-4-one]: 11 nM.
In turn, `CN1CCC(NC2=NC(=O)/C(=C/c3ccc4c(cnn4Cc4ccc(Cl)cc4C(F)(F)F)c3)S2)CC1` [Compound 25, 5-[1-(4-Chloro-2-trifluoromethyl-benzyl)-1H-indazol-5-ylmethylene]-2-(1-methyl-piperidin-4-ylamino)-thiazol-4-one] returned an EC50 of 42 nM.
For the compound `O=C1N=C(NCCn2ccnc2)S/C1=C\c1ccc2c(cnn2Cc2ccc(Cl)cc2C(F)(F)F)c1` [Compound 24, 5-[1-(4-Chloro-2-trifluoromethyl-benzyl)-1H-indazol-5-ylmethylene]-2-(2-imidazol-1-yl-ethylamino)-thiazol-4-one], the EC50 was found to be 12 nM. Compared with the last compound, the EC50 is about 3.5-fold lower.
Next, `O=C1N=C(NCc2nn[nH]n2)S/C1=C\c1ccc2c(cnn2Cc2ccc(C(F)(F)F)cc2C(F)(F)F)c1` [Compound 15, 5-[1-(2,4-Bis-trifluoromethyl-benzyl)-1H-indazol-5-ylmethylene]-2-[(2H-tetrazol-5-ylmethyl)-amino]-thiazol-4-one]: 3.9 nM; `COc1ccc(Cn2ncc3cc(/C=C4\SC(NCCCN5CCCC5=O)=NC4=O)ccc32)c(C(F)(F)F)c1` [Compound 7, 5-[1-(4-Methoxy-2-trifluoromethyl-benzyl)-1H-indazol-5-ylmethylene]-2-[3-(2-oxo-pyrrolidin-1-yl)-propylamino]-thiazol-4-one]: 4.4 nM.
The compound `O=C1N=C(N[C@H]2CN3CCC2CC3)S/C1=C\c1ccc2c(cnn2Cc2ccc(Cl)cc2C(F)(F)F)c1` [Compound 28, 2-(1-Aza-bicyclo[2.2.2]oct-3(R)-ylamino)-5-[1-(4-chloro-2-trifluoromethyl-benzyl)-1H-indazol-5-ylmethylene]-thiazol-4-one] registered an EC50 of 6 nM.
In the case of `O=C1N=C(N[C@H]2CC[C@@H](C(=O)O)CC2)S/C1=C\c1ccc2c(cnn2Cc2ccc(Cl)cc2C(F)(F)F)c1` [Compound 44, (S,S)-4-{5-[1-(4-Chloro-2-trifluoromethyl-benzyl)-1H-indazol-5-ylmethylene]-4-oxo-4,5-dihydro-thiazol-2-ylamino}-cyclohexanecarboxylic acid], it took 15 nM to reach a half-maximal effect (EC50). This EC50 is about 2.5-fold higher than that of the compound before.
The same measure for `O=C1CN(CCNC2=NC(=O)/C(=C/c3ccc4c(cnn4Cc4ccc(Cl)cc4C(F)(F)F)c3)S2)CCN1` [Compound 19, 4-(2-{5-[1-(4-Chloro-2-trifluoromethyl-benzyl)-1H-indazol-5-ylmethylene]-4-oxo-4,5-dihydro-thiazol-2-ylamino}-ethyl)-piperazin-2-one]: 11 nM.
For the compound `O=C1N=C(Nc2cccnc2)S/C1=C\c1ccc2c(cnn2Cc2ccc(Cl)cc2C(F)(F)F)c1` [Compound 20, 5-[1-(4-Chloro-2-trifluoromethyl-benzyl)-1H-indazol-5-ylmethylene]-2-(pyridin-3-ylamino)-thiazol-4-one], the EC50 amounted to 19.4 nM. This EC50 is about 1.8-fold higher than that of the compound before.
Next, `CN(C)CCCNC1=NC(=O)/C(=C/c2ccc3c(cnn3Cc3ccc(Cl)cc3C(F)(F)F)c2)S1` [Compound 3, 5-[1-(4-Chloro-2-trifluoromethyl-benzyl)-1H-indazol-5-ylmethylene]-2-(3-dimethylamino-propylamino)-thiazol-4-one]: 6.4 nM; `COc1ccc(Cn2ncc3cc(/C=C4\SC(NC5(C(=O)O)CC5)=NC4=O)ccc32)c(C(F)(F)F)c1` [Compound 13, 1-{5-[1-(4-Methoxy-2-trifluoromethyl-benzyl)-1H-indazol-5-ylmethylene]-4-oxo-4,5-dihydro-thiazol-2-ylamino}-cyclopropanecarboxylic acid]: 5.3 nM.
For the compound `O=C1N=C(N[C@H]2CN3CCC2CC3)S/C1=C\c1ccc2c(cnn2Cc2ccc(C(F)(F)F)cc2C(F)(F)F)c1` [Compound 26, 2-(1-Aza-bicyclo[2.2.2]oct-3(R)-ylamino)-5-[1-(2,4-bis-trifluoromethyl-benzyl)-1H-indazol-5-ylmethylene]-thiazol-4-one], the EC50 was 36 nM.

For orientation: EC50 means the concentration giving half of the maximal effect.

The values are drawn from US8445690B2, “Aminothiazolones as estrogen related receptor-alpha modulators” (Janssen Pharmaceutica NV, priority 2010, dated 2013).
